In PMC3813752 (PLoS ONE, 2013):
Where “and” joins values, the source holds several entries; their conditions need not be identical. Equal values may be shown once. Entries after “also recorded” stand apart in the source; their conditions may differ. Read-outs that look alike come from different tables or passages of the source. Marks after values point to notes of the source that are not given here.

Key:
human GPR55 = human GPR55 (Homo sapiens, UniProt Q9Y2T6); assay: β-arrestin recruitment assay (PathHunter), CHO cells expressing GPR55; details: for inhibition at 10 µM: CHO; for IC50: GPR55 IC50, β-arrestin recruitment, antagonist mode vs. LPI (1 µM); for functional property at GPR55 (agonist/antagonist): in words; for agonist effect on β-arrestin recruitment at GPR55: test compound 10 µM, related to effect of LPI 1 µM = 100%
human GPR18 [1] = biological target: T1, human GPR18 (Homo sapiens, UniProt Q14330); details: for functional property at GPR18 (agonist/antagonist): in words; for agonist effect on β-arrestin recruitment at GPR18: test compound 10 µM, related to effect of Δ9-THC 10 µM = 100%
T1 sequence (Q14330 1-331): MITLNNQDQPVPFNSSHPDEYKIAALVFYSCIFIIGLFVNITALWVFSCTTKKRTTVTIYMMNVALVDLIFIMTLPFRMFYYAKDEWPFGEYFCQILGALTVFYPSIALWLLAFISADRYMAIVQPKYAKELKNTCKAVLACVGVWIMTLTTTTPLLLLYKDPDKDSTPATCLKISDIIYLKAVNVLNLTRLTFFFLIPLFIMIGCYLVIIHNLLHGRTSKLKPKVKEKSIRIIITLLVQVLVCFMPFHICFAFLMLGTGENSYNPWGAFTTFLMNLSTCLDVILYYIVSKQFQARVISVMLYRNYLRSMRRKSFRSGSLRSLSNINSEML

human GPR18 [2] = biological target: T1, human GPR18; assay: cell-based; details: for inhibition at 10 µM: CHO, read-out: % inhibition of Δ9-THC (10 µM)-induced β-arrestin recruitment at GPR18, test compound at 10 µM; for IC50: GPR18 IC50, β-arrestin recruitment, antagonist mode vs. Δ9-THC (10 µM)
human CB2 receptor [3] = biological target: T2, human CB2 receptor (Homo sapiens, UniProt P34972); assay: Radioligand binding (heterologous competition) vs. [3H]CP55,940 at CB2; details: for Ki: three independent experiments in duplicates
human CB1 receptor [4] = biological target: T3, human CB1 receptor (Homo sapiens, UniProt P21554); assay: cAMP accumulation assay, CHO cells expressing CB1; assay type: cell-based; details: for functional property at CB1 (agonist/antagonist): in words, standard ligands partly from the literature
human CB1 receptor [5] = biological target: T3, human CB1 receptor; assay: biochemical; assay type: binding; details: for Ki: membranes of CHO cells expressing human CB1, three independent experiments in duplicates, read-out: Ki CB1, heterologous competition vs. [3H]CP55,940; for increase in CB1 receptor affinity compared to the unmethylated parent biphenyl: 60a vs 60, 61a vs 61
human CB2 receptor [6] = biological target: T2, human CB2 receptor; assay: cAMP accumulation assay, CHO cells expressing CB2; assay type: cell-based; details: for functional property at CB2 (agonist/antagonist): in words, standard ligands partly from the literature
[7] = read-out: % inhibition of LPI (1 µM)-induced β-arrestin recruitment at GPR55
[8] = Ki CB2, heterologous competition vs. [3H]CP55,940, membranes of CHO cells expressing human CB2
[9] = inhibition of forskolin-stimulated cAMP, CHO-hCB1, read-out: EC50 CB1, cAMP accumulation assay
[10] = read-out: % inhibition of LPI (1 µM)-induced β-arrestin recruitment at GPR55, test compound at 10 µM
[11] = membranes of CHO cells expressing human CB2, read-out: Ki CB2, heterologous competition vs. [3H]CP55,940
[12] = at 10 µM, compared to max. effect of full agonist CP55,940 (1 µM) = 100%

Chain of human GPR55 (Q9Y2T6 whole entry): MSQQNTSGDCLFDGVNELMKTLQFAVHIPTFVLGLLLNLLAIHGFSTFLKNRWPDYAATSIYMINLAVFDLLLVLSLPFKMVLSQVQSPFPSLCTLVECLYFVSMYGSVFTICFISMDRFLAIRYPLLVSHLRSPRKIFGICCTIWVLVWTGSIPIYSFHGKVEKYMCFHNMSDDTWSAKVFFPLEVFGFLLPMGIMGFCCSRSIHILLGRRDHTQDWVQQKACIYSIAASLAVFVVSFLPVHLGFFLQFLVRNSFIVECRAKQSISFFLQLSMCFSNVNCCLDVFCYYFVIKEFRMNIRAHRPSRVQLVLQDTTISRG
T2 sequence (P34972 whole entry): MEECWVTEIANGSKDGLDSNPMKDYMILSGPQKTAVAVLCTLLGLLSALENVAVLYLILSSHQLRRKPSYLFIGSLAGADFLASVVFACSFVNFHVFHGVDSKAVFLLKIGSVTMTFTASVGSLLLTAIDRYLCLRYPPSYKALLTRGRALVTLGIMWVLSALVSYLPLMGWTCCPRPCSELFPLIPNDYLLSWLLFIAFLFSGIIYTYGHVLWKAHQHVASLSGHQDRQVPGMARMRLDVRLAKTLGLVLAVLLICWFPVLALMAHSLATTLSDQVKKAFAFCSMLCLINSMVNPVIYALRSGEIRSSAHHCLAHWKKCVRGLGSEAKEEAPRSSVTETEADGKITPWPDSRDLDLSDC
T3 sequence (P21554 whole entry): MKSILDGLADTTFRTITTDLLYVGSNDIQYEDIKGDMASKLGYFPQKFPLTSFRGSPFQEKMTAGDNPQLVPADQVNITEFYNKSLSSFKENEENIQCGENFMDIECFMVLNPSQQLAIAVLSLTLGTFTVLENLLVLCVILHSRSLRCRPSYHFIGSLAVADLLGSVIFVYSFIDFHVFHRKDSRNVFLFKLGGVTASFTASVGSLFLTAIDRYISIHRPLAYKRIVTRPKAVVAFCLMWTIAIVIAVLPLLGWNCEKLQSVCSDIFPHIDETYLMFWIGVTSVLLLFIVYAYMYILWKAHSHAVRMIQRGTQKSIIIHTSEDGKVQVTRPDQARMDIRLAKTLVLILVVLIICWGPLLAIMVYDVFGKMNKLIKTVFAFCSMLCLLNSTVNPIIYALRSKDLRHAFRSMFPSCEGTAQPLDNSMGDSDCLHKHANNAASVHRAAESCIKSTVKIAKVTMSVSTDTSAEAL

Structure (SMILES) | EC50 (human GPR55) | inhibition at 10 µM (human GPR55; [7]) | IC50 (human GPR55) | functional property at GPR55 (agonist/antagonist) (human GPR55) | agonist effect on β-arrestin recruitment at GPR55 (human GPR55) | functional property at GPR18 (agonist/antagonist) (human GPR18 [1]) | agonist effect on β-arrestin recruitment at GPR18 (human GPR18 [1]) | EC50 (human GPR18 [2]) | inhibition at 10 µM (human GPR18 [2]) | IC50 (human GPR18 [2]) | Ki (human CB2 receptor [3]; [8]) | functional property at CB1 (agonist/antagonist) (human CB1 receptor [4]) | EC50 (human CB1 receptor [4]; [9]) | Ki (human CB1 receptor [5]) | EC50 (human CB2 receptor [6]) | functional property at CB2 (agonist/antagonist) (human CB2 receptor [6]) | inhibition at 10 µM (human GPR55; [10]) | Ki (human CB2 receptor [3]; [11]) | EC50 (human CB1 receptor [4]) | also measured
CCCc1ccc(O)c(-c2cc(CCC)ccc2OC)c1 [Compound 12a, methoxytetrahydromagnolol] | > 10000 nM | 82% | 4550 ± 1080 nM | antagonist | 0% | antagonist | 26% | > 10000 nM | 41% | ~10000 nM | 221 ± 57 nM | Full agonists; also recorded: agonist | 622 ± 284 nM | 267 ± 58 nM | 77.8 ± 20.5 nM | Full agonists; also recorded: agonist |  |  |  | 
CCCCc1ccc(O)c(-c2cc(CCCC)ccc2O)c1 [Compound 43] | > 10000 nM |  | > 10000 nM |  | 29% |  | 0% | > 10000 nM | 74% | 12000 ± 1400 nM |  |  |  | 2700 ± 1200 nM | 378 ± 148 nM |  | 0% | 1590 ± 40 nM | 7110 ± 1430 nM | 
CCCCCc1ccc(O)c(-c2cc(CCCCC)ccc2O)c1 [Compound 44] | > 10000 nM |  | > 10000 nM |  | 26% |  | 0% | > 10000 nM | 128% | 12000 ± 2700 nM |  |  |  | 3130 ± 1130 nM | 2300 ± 710 nM |  | 2% | 833 ± 123 nM | 4540 ± 830 nM | 
CCCCCc1ccc(O)c(-c2cc(CCC)ccc2O)c1 [Compound 60, 5-Pentyl-5′-propylbiphenyl-2,2′-diol] | > 10000 nM |  | > 10000 nM and ~10000 nM | antagonist | 28% | antagonist | 0% | > 10000 nM | 118% | 14500 ± 2800 nM | 37.1 ± 7.8 nM | full agonistic effects; also recorded: full agonists; also recorded: agonist |  | 362 ± 113 nM | 258 ± 13 nM | partial agonists; also recorded: almost full efficacy; also recorded: agonist | 45% |  | 971 ± 89 nM | 
CCCCCc1ccc(O)c(-c2cc(CCC)ccc2OC)c1 [Compound 60a, 2-(2-methoxy-5-propyl-phenyl)-4-pentylphenol] | > 10000 nM | 66% | 6930 ± 1060 nM | antagonist | 0% | antagonist | 22% | > 10000 nM | 47% | > 10000 nM and ~10000 nM | 31 ± 9.9 nM | Full agonists; also recorded: agonist | 37.5 ± 5.6 nM | 17.3 ± 1.4 nM | 39.9 ± 10 nM | Full agonists; also recorded: agonist |  |  |  | increase in CB1 receptor affinity compared to the unmethylated parent biphenyl (human CB1 receptor [5]): 21 fold
CCCCCCc1ccc(O)c(-c2cc(CCC)ccc2O)c1 [Compound 61, 5-Hexyl-5′-propylbiphenyl-2,2′-diol] | > 10000 nM |  | > 10000 nM and ~10000 nM | antagonist | 32% | antagonist | 0% | > 10000 nM | 139% | ~10400 nM and 10400 nM | 29.4 ± 9 nM | full agonistic effects; also recorded: full agonists; also recorded: agonist |  | 145 ± 48 nM | 159 ± 18 nM | almost full efficacy; also recorded: partial agonists; also recorded: agonist | 45% |  | 829 ± 278 nM | selectivity for CB1 versus GPR18 (human GPR18 [1]; Ki CB1 vs estimated GPR18 IC50): approximately 70 fold; selectivity for CB2 versus GPR18 (human GPR18 [1]; Ki CB2 vs estimated GPR18 IC50): ~350 fold
CCCCCCc1ccc(O)c(-c2cc(CCC)ccc2OC)c1 [Compound 61a, 5-Hexyl-2′-methoxy-5′-propylbiphenyl-2-ol] | > 10000 nM | 58% | ~10000 nM | antagonist | 0% | antagonist | 0% | > 10000 nM | 30% | > 10000 nM | 23.8 ± 7.1 nM | Full agonists; also recorded: agonist | 159 ± 76 nM | 9.57 ± 5.43 nM | 38.5 ± 17 nM | Full agonists; also recorded: agonist |  |  |  | increase in CB2 receptor affinity of 61a compared to isomer 61b (human CB2 receptor [3]): 12 fold; increase in CB1 receptor affinity of 61a compared to isomer 61b (human CB1 receptor [5]): 33 fold; increase in CB1 receptor affinity compared to the unmethylated parent biphenyl (human CB1 receptor [5]): 15 fold
CCCCCCc1ccc(OC)c(-c2cc(CCC)ccc2O)c1 [Compound 61b, 5′-Hexyl-2′-methoxy-5-propylbiphenyl-2-ol] | > 10000 nM |  | 3250 ± 290 nM | antagonist | 0% | antagonist | 0% | > 10000 nM | 22% | > 10000 nM |  | CB1-antagonistic activity; also recorded: antagonist |  | 313 ± 125 nM | 595 ± 150 nM | partial agonistic activity; also recorded: agonist | 120% | 281 ± 101 nM |  | Kb (human CB1 receptor [4]): 1850 nM; reduction of CB1 receptor affinity compared to 61 (human CB1 receptor [5]): 2 fold
CCCCCCCCc1ccc(O)c(-c2cc(CCC)ccc2O)c1 [Compound 63] | > 10000 nM |  | > 10000 nM |  | 0% |  | 0% | > 10000 nM | 123% | 10700 ± 700 nM |  |  |  | 1660 ± 450 nM |  |  | 0% | 955 ± 418 nM |  | efficacy CB1, cAMP accumulation assay (human CB1 receptor [4]; [12]): (73%)^b; efficacy CB2, cAMP accumulation assay (human CB2 receptor [6]; [12]): (52%)^b
